Measured values: doi:10.1101/2021.09.10.459855v1 (bioRxiv, 2021)

What was measured:
Micelle surface charge = format: physicochemical; conditions: 100 μM in deionized, distilled water (ddH2O); Malvern DLS Zetasizer
[1] = Micelle morphology by negative-stain TEM; format: physicochemical
[2] = tested on: LPS-activated Mφ TNF-α secretion (mouse RAW 264.7); assay: Mφ TNF-α secretion; format: cell-based; conditions: 6 hours
[3] = tested on: LPS-activated DC TNF-α secretion; assay: DC TNF-α secretion; format: cell-based, mouse; conditions: for Decrease of DC TNF-α secretion: 6 hours
[4] = tested on: LPS-activated DC CCL22 production; assay: DC CCL22 production; format: cell-based, mouse
[5] = tested on: MHC II and CD86 on LPS-activated DCs; assay: DC surface marker expression, MHC II+CD86+ population; format: cell-based, mouse; conditions: 24 hours, 100 μM

## Vasoactive intestinal peptide [VIP]
Micelle surface charge
  Zeta potential: 6.82 ± 0.67 mV
[1]; 100 μM (highest concentration)
  Aggregation / particle morphology: aggregate into spherical nanoparticles
[1]; lower concentrations than 100 μM (data not shown)
  Particle formation: no particle formation was observed
[2]; 100 μM
  Mφ TNF-α secretion: cytokine secretion was suppressed
[2]; concentration-dependent (0.1 - 100 μM), versus LPS alone
  Mφ TNF-α secretion: mild to moderate TNF-α suppression
[3]; 10 μM
  Decrease of DC TNF-α secretion: slightly
[3]; 100 μM
  Decrease of DC TNF-α secretion: more extensively
[3]; 24 hours, 1 μM and 10 μM, versus LPS alone
  DC TNF-α secretion: suppressed TNF-α generation
[4]; 1 μM and 10 μM (Figure S7)
  DC CCL22 production: reduced CCL22 production
[4]; 100 μM (Figure S7)
  DC CCL22 production: enhanced CCL22 expression
[5]
  MHC II and CD86 surface markers on DCs: failed to downregulate MHC II and CD86
